Read-outs that look alike come from different tables or passages of the source.
What was measured:
AT1 Receptor (AT1R) = AT1 Receptor (AT1R) (Homo sapiens (Human), UniProt P30556); experiment: Inhibitory activity on AT1 receptor (Tag-lite HTRF, Tb-labeled AT1R cells, angiotensin receptor red agonist); type: binding; details: 1 h at room temperature
AT2 Receptor (AT2R) = AT2 Receptor (AT2R) (Homo sapiens (Human), UniProt P50052); experiment: Inhibitory activity on AT2 receptor (Tag-lite HTRF, Tb-labeled AT2R cells, angiotensin receptor red agonist); type: binding; details: 1 h at room temperature
Sequence of AT2 Receptor (AT2R) (P50052 whole entry): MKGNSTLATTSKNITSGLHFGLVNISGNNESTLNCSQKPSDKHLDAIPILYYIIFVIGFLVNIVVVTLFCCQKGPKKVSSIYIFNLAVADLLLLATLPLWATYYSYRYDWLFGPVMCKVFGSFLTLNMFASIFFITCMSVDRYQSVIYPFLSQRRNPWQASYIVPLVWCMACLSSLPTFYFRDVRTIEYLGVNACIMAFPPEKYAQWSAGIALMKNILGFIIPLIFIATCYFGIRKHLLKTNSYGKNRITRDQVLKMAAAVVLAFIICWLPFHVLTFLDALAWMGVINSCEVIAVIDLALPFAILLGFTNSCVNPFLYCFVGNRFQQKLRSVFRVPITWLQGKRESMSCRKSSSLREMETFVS

[1] = Pharmacokinetic (PK) test in mice; type: in vivo; details: male ICR mice, plasma; for bioavailability / AUC(0-t) / MRT last / half-life / AUC(0-inf) / Cmax: mouse; for bioavailability: PO 20 mg/kg vs IV 3 mg/kg; for AUC(0-inf): read-out: AUCINF_obs; for Cmax: read-out: C0/Cmax
Procedure: To male ICR mice, the solution of Compound C2 (1 mg/mL) of the present invention and the solution of control Compound A (1 mg/mL) were administered intravenously (IV) and intragastrically (PO), in both of which the vehicle system is DMSO, solutol and deionized water (1:2:17, v:v:v). For Compound C2 and Compound A, the IV and PO dosages were 3 mg/kg and 20 mg/kg, respectively. For IV administration, blood was collected from the ophthalmic venous plexus of the mice at (0) horn before the administration and at 0.083, 0.25, 0.5, 1, 2, 4, 6, 8, and 24 horns after the administration, while for PO administration, blood was collected from ophthalmic venous plexus of the mice at (0) hour before the administration and at 0.25, 0.5, 1, 2, 4, 6, 8, and 24 horns after the administration. For Compound C2, a 0.05 mL blood sample was taken at each time point, while for Compound A, a 0.03 mL blood sample was taken at each time point. The collected blood sample was placed in a clean sample tube containing EDTA-K2 (4%), and centrifuged at 5000 rpm at 4° C. for 5 minutes. The resulting plasma was transferred to another clean sample tube, and stored at −20° C. LC-MS/MS analysis was performed on the plasma samples. The pharmacokinetic parameters were calculated using WinNonlin 6.3 software.

Sequence of AT1 Receptor (AT1R) (P30556 whole entry): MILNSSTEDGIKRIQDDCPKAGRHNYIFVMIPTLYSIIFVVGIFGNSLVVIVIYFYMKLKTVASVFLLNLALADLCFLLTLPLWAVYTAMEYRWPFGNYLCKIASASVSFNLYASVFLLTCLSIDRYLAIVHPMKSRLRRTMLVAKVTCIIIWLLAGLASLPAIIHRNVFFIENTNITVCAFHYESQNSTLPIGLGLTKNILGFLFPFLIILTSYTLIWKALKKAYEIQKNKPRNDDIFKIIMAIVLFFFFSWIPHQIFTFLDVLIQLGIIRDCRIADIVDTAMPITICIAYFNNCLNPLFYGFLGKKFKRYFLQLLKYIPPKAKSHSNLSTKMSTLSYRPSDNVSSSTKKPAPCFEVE

SMILES: COC1=Cc2ccccc2N(C(=O)N2CCN(C(=O)N(c3ccccc3)c3ccccc3)C[C@H]2C(=O)O)c2ccccc21 [Compound C50, (S)-4-(diphenylcarbamoyl)-1-(10-methoxy-5H-dibenzo[b,f]azepine-5-carbonyl) piperazine-2-carboxylic acid]
- IC50 (AT1 Receptor (AT1R)): > 10000 nM

SMILES: O=C(O)[C@@H]1CN(C(=O)N2c3ccccc3Sc3ccccc32)CCN1C(=O)C(c1ccccc1)c1ccccc1 [Compound C12, (S)-1-(2,2-diphenylacetyl)-4-(10H-phenothiazine-10-carbonyl) piperazine-2-carboxylic acid]
- IC50 (AT1 Receptor (AT1R)): > 10000 nM
- IC50 (AT2 Receptor (AT2R)): 43.7 nM

SMILES: O=C(O)[C@@H]1CN(C(=O)N2c3ccccc3C=Cc3ccccc32)CCN1C(=O)C(c1ccccc1)c1ccccc1 [Compound C5, (S)-4-(5H-dibenzo [b,f]azepine-5-carbonyl)-1-(2,2-diphenylacetyl) piperazine-2-carboxylic acid]
- IC50 (AT1 Receptor (AT1R)): > 10000 nM
- IC50 (AT2 Receptor (AT2R)): 6.47 nM

SMILES: O=C(O)[C@H]1CN(C(=O)N(c2ccccc2)c2ccccc2)CCN1C(=O)N1c2ccccc2C=Cc2ccccc21 [Compound C46, (R)-1-(5H-dibenzo [b,f]azepine-5-carbonyl)-4-(diphenylcarbamoyl) piperazine-2-carboxylic acid]
- IC50 (AT1 Receptor (AT1R)): > 10000 nM
- IC50 (AT2 Receptor (AT2R)): 54.5 nM

SMILES: O=C(O)[C@@H]1CN(C(=O)C(c2ccccc2)c2ccccc2)CCN1C(=O)N1c2ccccc2C=Cc2ccccc21 [Compound C4, (S)-1-(5H-dibenzo [b,f]azepine-5-carbonyl)-4-(2,2-diphenylacetyl) piperazine-2-carboxylic acid]
- IC50 (AT1 Receptor (AT1R)): > 10000 nM
- IC50 (AT2 Receptor (AT2R)): 45.1 nM

SMILES: CN(C)S(=O)(=O)NC(=O)[C@@H]1CN(C(=O)N(c2ccccc2)c2ccccc2)CCN1C(=O)N1c2ccccc2C=Cc2ccccc21 [Compound C33, (S)-4-(5H-dibenzo[b,f]azepine-5-carbonyl)-N^3—(N,N-dimethylsulphamoyl)-N^1,N^1-phenylpiperazine-1,3-dicarboxamide]
- IC50 (AT1 Receptor (AT1R)): > 10000 nM
- IC50 (AT2 Receptor (AT2R)): 35.9 nM

SMILES: O=C(O)[C@@H]1CN(C(=O)N2c3ccccc3C=Cc3ccccc32)CCN1C(=O)N(c1ccccc1)c1ccccc1 [Compound C1, (S)-4-(5H-dibenzo[b,f]azepine-5-carbonyl)-1-(diphenylcarbamoyl) piperazine-2-carboxylic acid]
- IC50 (AT1 Receptor (AT1R)): > 10000 nM
- IC50 (AT2 Receptor (AT2R)): 18.8 nM

SMILES: O=C(O)[C@@H]1CN(C(=O)N(c2ccccc2)c2ccccc2)CCN1C(=O)N(c1ccccc1)c1ccccc1 [A, reference compound]
- CL_obs ([1]; IV, 3 mg/kg): 41.8933 mL/min/kg
- bioavailability [1]: 6.26%
- AUC(0-t) ([1]; IV, 3 mg/kg): 1190 ng·h/mL
- MRT last ([1]; IV, 3 mg/kg): 0.29 h
- half-life ([1]; IV, 3 mg/kg): 0.5 h
- AUC(0-inf) ([1]; IV, 3 mg/kg): 1200 ng·h/mL
- Cmax ([1]; IV, 3 mg/kg): 7170 ng/mL
- AUC(0-t) ([1]; PO, 20 mg/kg): 495 ng·h/mL
- MRT last ([1]; PO, 20 mg/kg): 1.06 h
- half-life ([1]; PO, 20 mg/kg): 0.872 h
- AUC(0-inf) ([1]; PO, 20 mg/kg): 499 ng·h/mL
- Cmax ([1]; PO, 20 mg/kg): 366 ng/mL

SMILES: O=C(O)[C@@H]1CN(C(=O)N2c3ccccc3Sc3ccccc32)CCN1C(=O)N(c1ccccc1)c1ccccc1 [Compound C44, (S)-1-(diphenylcarbamoyl)-4-(10H-phenothiazine-10-carbonyl)piperazine-2-carboxylic acid]
- IC50 (AT1 Receptor (AT1R)): > 10000 nM
- IC50 (AT2 Receptor (AT2R)): 62.6 nM

SMILES: O=C(O)[C@@H]1CN(C(=O)N(c2ccccc2)c2ccccc2)CCN1C(=O)C1(c2ccccc2)CCCCC1 [Compound C80, (S)-4-(diphenylcarbamoyl)-1-(1-phenylcyclohexanecarbonyl) piperazine-2-carboxylic acid]
- IC50 (AT1 Receptor (AT1R)): > 10000 nM
- IC50 (AT2 Receptor (AT2R)): 12.7 nM

SMILES: O=C(O)[C@H]1CN(C(=O)N2c3ccccc3C=Cc3ccccc32)CCN1C(=O)N(c1ccccc1)c1ccccc1 [Compound C45, (R)-4-(5H-dibenzo[b,f]azepine-5-carbonyl)-1-(diphenylcarbamoyl) piperazine-2-carboxylic acid]
- IC50 (AT1 Receptor (AT1R)): > 10000 nM
- IC50 (AT2 Receptor (AT2R)): 55.5 nM

SMILES: O=C(O)[C@@H]1CN(C(=O)N(c2ccccc2)c2ccccc2)CCN1C(=O)N1c2ccccc2Sc2ccccc21 [Compound C20, (S)-4-(diphenylcarbamoyl)-1-(10H-phenothiazine-10-carbonyl)piperazine-2-carboxylic acid]
- IC50 (AT1 Receptor (AT1R)): > 10000 nM
- IC50 (AT2 Receptor (AT2R)): 36.7 nM

SMILES: O=C(O)[C@@H]1CN(C(=O)N2c3ccccc3C=Cc3ccccc32)CCN1C(=O)N1c2ccccc2C=Cc2ccccc21 [Compound C3, (S)-1,4-bis(5H-dibenzo[b,f]azepine-5-carbonyl) piperazine-2-carboxylic acid]
- IC50 (AT1 Receptor (AT1R)): > 10000 nM
- IC50 (AT2 Receptor (AT2R)): 32.5 nM

SMILES: O=C(O)[C@@H]1CN(C(=O)C(c2ccccc2)c2ccccc2)CCN1C(=O)C1(c2ccccc2)CCCCC1 [Compound C81, (S)-4-(2,2-diphenylacetyl)-1-(1-phenylcyclohexanecarbonyl) piperazine-2-carboxylic acid]
- IC50 (AT1 Receptor (AT1R)): > 10000 nM

SMILES: O=C(O)[C@@H]1CN(C(=O)N(c2ccccc2)c2ccccc2)CCN1C(=O)N1c2ccccc2C=Cc2ccccc21 [Compound C2, (S)-1-(5H-dibenzo[b,f]azepine-5-carbonyl)-4-(diphenylcarbamoyl) piperazine-2-carboxylic acid]
- IC50 (AT1 Receptor (AT1R)): > 10000 nM
- CL_obs ([1]; IV, 3 mg/kg): 1.010 mL/min/kg
- bioavailability [1]: 45.7%
- AUC(0-t) ([1]; IV, 3 mg/kg): 49000 ng·h/mL
- MRT last ([1]; IV, 3 mg/kg): 1.9 h
- half-life ([1]; IV, 3 mg/kg): 4.51 h
- AUC(0-inf) ([1]; IV, 3 mg/kg): 49500 ng·h/mL
- Cmax ([1]; IV, 3 mg/kg): 43400 ng/mL
- AUC(0-t) ([1]; PO, 20 mg/kg): 151000 ng·h/mL
- MRT last ([1]; PO, 20 mg/kg): 2.34 h
- half-life ([1]; PO, 20 mg/kg): 3.05 h
- AUC(0-inf) ([1]; PO, 20 mg/kg): 151000 ng·h/mL
- Cmax ([1]; PO, 20 mg/kg): 62000 ng/mL
- IC50 (AT2 Receptor (AT2R)): 20.3 nM

SMILES: COc1ccccc1N(C(=O)N1CCN(C(=O)N2c3ccccc3CC(=O)c3ccccc32)[C@H](C(=O)O)C1)c1ccccc1OC [Compound C94, (S)-4-(bis(2-methoxylphenyl)carbamoyl)-1-(10-oxo-10,11-dihydro-5H-dibenzo [b,f]azepine-5-carbonyl)piperazine-2-carboxylic acid]
- IC50 (AT1 Receptor (AT1R)): > 10000 nM

SMILES: O=C1Cc2ccccc2N(C(=O)N2CCN(C(=O)N(c3ccccc3)c3ccccc3)C[C@H]2C(=O)O)c2ccccc21 [Compound C77, (S)-4-(diphenylcarbamoyl)-1-(10-oxo-10,11-dihydro-5H-dibenzo[b,f]azepine-5-carbonyl)piperazine-2-carboxylic acid]
- IC50 (AT1 Receptor (AT1R)): > 10000 nM
- IC50 (AT2 Receptor (AT2R)): 32.3 nM

SMILES: Cc1cc(CN(C(=O)N2CCN(C(=O)N(c3ccccc3)c3ccccc3)[C@H](C(=O)O)C2)C2CC2)cs1 [Compound C146, (S)-4-(cyclopropyl((5-methylthiophen-3-yl)methyl)carbamoyl)-1-(diphenylcarbamoyl) piperazine-2-carboxylic acid]
- IC50 (AT2 Receptor (AT2R)): 14.2 nM

SMILES: COc1ccccc1N(C(=O)N1CCN(C(=O)N2c3ccccc3C=Cc3ccccc32)[C@H](C(=O)O)C1)c1ccccc1 [Compound C113, (S)-1-(5H-dibenzo[b,f]azepine-5-carbonyl)-4-((2-methoxylphenyl) (phenyl)carbamoyl) piperazine-2-carboxylic acid]
- IC50 (AT2 Receptor (AT2R)): 7.37 nM

SMILES: CCN(Cc1ccsc1)C(=O)N1CCN(C(=O)N2c3ccccc3CC(=O)c3ccccc32)[C@H](C(=O)O)C1 [Compound C79, (S)-4-(ethyl (thiophene-3-ylmethyl)carbamoyl)-1-(10-oxo-10,ll-dihydro-5H-dibenzo[b,f]azepine-5-carbonyl) piperazine-2-carboxylic acid]
- IC50 (AT2 Receptor (AT2R)): 460 nM

SMILES: Cc1cc(CN(C)C(=O)N2CCN(C(=O)N(c3ccccc3)c3ccccc3)[C@H](C(=O)O)C2)sc1C [Compound C144, (S)-4-(((4,5-dimethylthiophen-2-yl)methyl)(methyl)carbamoyl)-1-(diphenylcarbamoyl) piperazine-2-carboxylic acid]
- IC50 (AT2 Receptor (AT2R)): 98.1 nM
